From patent US8927560B2, “4-Aza-2, 3-didehydropodophyllotoxin compounds and process for the preparation thereof” (Council of Scientific & Industrial Research, priority 2010, dated 2015)

Key:
Zr-75-1 = test: SRB in vitro cytotoxicity assay, Zr-75-1 breast cancer cells; assay type: cell-based; conditions: Homo sapiens, 48 h drug exposure, read-out: In vitro anticancer activity GI50, Breast Zr-75-1
Description: (§1) Compounds 4a-4z and 4aa-4ae have been evaluated for their in vitro cytotoxicity in selected human cancer cell lines i.e., colon (Colo205), lung (Hop-62, A549), cervix (SiHa), prostate (PC3), oral (KB, DWD, Gurav), Ovarian (A-2780) and breast (MCF7, Zr-75-1) origin by employing the sulforhodamine B (SRB) assay method (Skehn, P.; Storeng, R.; Scudiero, A.; Monks, J.; MeMohan, D.; Vistica, D.; Jonathan, T. W.; Bokesch, H.; Kenney, S.; Boyd M. R. J. Natl. Cancer Inst. 1990, 82, 1107).
(§2) The synthesized compounds have been evaluated for their in vitro cytotoxicity in human cancer cell lines. A protocol of 48 h continuous drug exposure has been used and a sulforhodamine B (SRB) protein assay has been used to estimate cell viability or growth. The cell lines were grown in DMEM medium containing 10% fetal bovine serum and 2 mM L-glutamine and were inoculated into 96 well microtiter plates in […] at plating densities depending on the doubling time of individual cell lines. The microliter plates were incubated at 37_C, 5% CO2, 95% air, and 100% relative humidity for 24 h prior to addition of experimental drugs. Aliquots of […] of the drug dilutions were added to the appropriate microliter wells already containing […] of cells, suiting in the required final drug concentrations. For each compound four concentrations (0.1, 1, 10 and 100 uM) were evaluated and each was done in triplicate wells. Plates were incubated further for 48 h and assay was terminated by the addition of […] of cold trichloro acetic acid (TCA) (final concentration, 10% TCA) and incubated for 60 min at 4_C. The plates were washed five times with tap water and airdried. Sulforhodamine B (SRB) solution ([…]) at 0.4% (w/v) in 1% acetic acid was added to each of the cells, and plates were incubated for 20 min at room temperature. The residual dye was removed by washing five times with 1% acetic acid. The plates were airdried. Bound stain was subsequently eluted with 10 mM trizma base, and the absorbance was read on an ELISA plate reader at a wavelength of 540 nm with 690 nm reference wavelengths. Percent growth was calculated on a plate by plate basis for test wells relative to control wells. The above determinations were repeated three times. Percentage growth was expressed as the (ratio of average absorbance of the test well to the average absorbance of the control wells)*100. Growth inhibition of 50% (GI50) was calculated from [(Ti−Tz)/(C−Tz)]*100 ¼ 50, which is the drug concentration resulting in a 50% reduction in the net protein increase (as measured by SRB staining) in control cells during the drug incubation. Where, Tz ¼ Optical density at time zero, OD of control ¼ C, and OD of test growth in the presence of drug ¼ Ti.

MCF7 = test: SRB in vitro cytotoxicity assay, MCF7 breast cancer cells; assay type: cell-based; conditions: Homo sapiens, 48 h drug exposure, read-out: In vitro anticancer activity GI50, Breast MCF7
Description: as §1, §2

KB = test: SRB in vitro cytotoxicity assay, KB oral cancer cells; assay type: cell-based; conditions: Homo sapiens, 48 h drug exposure, read-out: In vitro anticancer activity GI50, Oral KB
Description: as §1, §2

Gurav = test: SRB in vitro cytotoxicity assay, Gurav oral cancer cells; assay type: cell-based; conditions: Homo sapiens, 48 h drug exposure, read-out: In vitro anticancer activity GI50, Oral Gurav
Description: as §1, §2

DWD = test: SRB in vitro cytotoxicity assay, DWD oral cancer cells; assay type: cell-based; conditions: Homo sapiens, 48 h drug exposure, read-out: In vitro anticancer activity GI50, Oral DWD
Description: as §1, §2

Colo 205 = test: SRB in vitro cytotoxicity assay, Colo 205 colon cancer cells; assay type: cell-based; conditions: Homo sapiens, 48 h drug exposure, read-out: In vitro anticancer activity GI50, Colon Colo 205
Description: as §1, §2

A-549 = test: SRB in vitro cytotoxicity assay, A-549 lung cancer cells; assay type: cell-based; conditions: Homo sapiens, A549, 48 h drug exposure, read-out: In vitro anticancer activity GI50, Lung A-549
Description: as §1, §2

Hop62 = test: SRB in vitro cytotoxicity assay, Hop62 lung cancer cells; assay type: cell-based; conditions: Homo sapiens, HOP-62, 48 h drug exposure, read-out: In vitro anticancer activity GI50, Lung Hop62
Description: as §1, §2

PC3 = test: SRB in vitro cytotoxicity assay, PC3 prostate cancer cells; assay type: cell-based; conditions: Homo sapiens, PC-3, 48 h drug exposure, read-out: In vitro anticancer activity GI50, Prostate PC3
Description: as §1, §2

A-2780 = test: SRB in vitro cytotoxicity assay, A-2780 ovarian cancer cells; assay type: cell-based; conditions: Homo sapiens, A2780, 48 h drug exposure, read-out: In vitro anticancer activity GI50, Ovarian A-2780
Description: as §1, §2

SiHa = test: SRB in vitro cytotoxicity assay, SiHa cervix cancer cells; assay type: cell-based; conditions: Homo sapiens, 48 h drug exposure, read-out: In vitro anticancer activity GI50, Cervix SiHa
Description: as §1, §2

| SMILES | GI50 (Zr-75-1) | GI50 (MCF7) | GI50 (KB) | GI50 (Gurav) | GI50 (DWD) | GI50 (Colo 205) | GI50 (A-549) | GI50 (Hop62) | GI50 (PC3) | melting point | GI50 (A-2780) | GI50 (SiHa) |
| --- | --- | --- | --- | --- | --- | --- | --- | --- | --- | --- | --- | --- |
| COc1nc2c(c(OC)n1)C(c1cc(OC)c(OC)c(OC)c1)C1=C(COC1=O)N2 (centres unmarked) [Compound 4a, 2,4-dimethoxy-5-(3,4,5-trimethoxyphenyl)-5,6,8,9-tetrahydrofuro[3′,4′:5,6]pyrido[2,3-d]pyrimidin-6-one] | 2.2 µM | 2.4 µM | 0.17 µM | 2 µM | 2.4 µM | 0.16 µM | 2.1 µM | 2.5 µM | 2.4 µM | 299 to 300 °C |  |  |
| COc1ccc(-c2noc3c2C(c2ccc(OC)c(O)c2)C2=C(COC2=O)N3)cc1 (centres unmarked) [Compound 4ab, 4-(3-hydroxy-4-methoxyphenyl)-3-(4-methoxyphenyl)-4,5,7,8-tetrahydrofuro[3′,4′:5,6]pyrido[3,2-d]isoxazol-5-one] | 0.14 µM | 0.19 µM | 0.17 µM | 0.14 µM | < 0.1 µM | 2.7 µM | < 0.1 µM | 0.14 µM | 0.16 µM | 219 to 221 °C | 0.16 µM |  |
| COc1cc(C2C3=C(COC3=O)Nc3onc(-c4ccc(Cl)cc4)c32)cc(OC)c1OC (centres unmarked) [Compound 4ac, 3-(4-chlorophenyl)-4-(3,4,5-trimethoxyphenyl)-4,5,7,8-tetrahydrofuro[3′,4′:5,6]pyrido[3,2-d]isoxazol-5-one] | 0.19 µM | 2.3 µM | 2.4 µM | 0.18 µM | 2 µM |  | < 0.1 µM | 2.5 µM | 2.3 µM | 248 to 249 °C | 2 µM | 2.3 µM |
| COc1ccc(C2C3=C(COC3=O)Nc3ccc4cc[nH]c4c32)cc1O (centres unmarked) [Compound 4g, 10-(3-hydroxy-4-methoxyphenyl)-6,7,9,10-tetrahydro-1H-furo[3,4-b]pyrrolo[2,3-f]quinolin-9-one] | 2.8 µM | 2.9 µM | 2.2 µM | 2.3 µM |  | 0.19 µM | 2.3 µM | 2.2 µM |  | 297 to 299 °C | 2.7 µM |  |
| COc1cc(C2C3=C(COC3=O)Nc3ccc4cc[nH]c4c32)ccc1F (centres unmarked) [Compound 4h, 10-(4-fluoro-3-methoxyphenyl)-6,7,9,10-tetrahydro-1H-furo[3,4-b]pyrrolo[2,3-f]quinolin-9-one] | 2.5 µM | 2.1 µM | 0.17 µM | 2.5 µM | 2.6 µM |  | 2.2 µM | 2.6 µM |  | 170 to 172 °C | 2.3 µM |  |
| COc1cc(C2C3=C(COC3=O)Nc3ccc4cc(C)[nH]c4c32)cc(OC)c1OC (centres unmarked) [Compound 4j, 2-methyl-10-(3,4,5-trimethoxyphenyl)-6,7,9,10-tetrahydro-1H-furo[3,4-b]pyrrolo[2,3-f]quinolin-9-one] |  |  |  |  |  |  |  |  |  |  |  | 2.6 µM |
| COc1ccc(C2C3=C(COC3=O)Nc3ccc4cc(C)[nH]c4c32)cc1O (centres unmarked) [Compound 4k, 10-(3-hydroxy-4-methoxyphenyl)-2-methyl-6,7,9,10-tetrahydro-1H-furo[3,4-b]pyrrolo[2,3-f]quinolin-9-one] | 0.17 µM | 2 µM | 2.1 µM | 0.17 µM | 2 µM | 2.7 µM | < 0.1 µM | 0.16 µM | 0.17 µM | 293 to 294 °C | 0.19 µM |  |
| COc1cc(C2C3=C(COC3=O)Nc3ccc4cn[nH]c4c32)ccc1O (centres unmarked) [Compound 4o, 10-(4-hydroxy-3-methoxyphenyl)-6,7,9,10-tetrahydro-1H-furo[3,4-b]pyrazolo[3,4-f]quinolin-9-one] | 2.1 µM | 2 µM |  |  |  | 2 µM |  | 2.8 µM | 2.3 µM | 238 to 240 °C |  |  |
| COc1ccc(C2C3=C(COC3=O)Nc3ccc4cn[nH]c4c32)cc1[N+](=O)[O-] (centres unmarked) [Compound 4r, 10-(4-methoxy-3-nitrophenyl)-6,7,9,10-tetrahydro-1H-furo[3,4-b]pyrazolo[3,4-f]quinolin-9-one] | 0.14 µM | 0.16 µM | 0.12 µM | 0.14 µM | < 0.1 µM | 2.2 µM | < 0.1 µM | 0.13 µM | 0.16 µM | 217 to 218 °C | 0.13 µM |  |
| COc1cc(C2C3=C(COC3=O)Nc3ccc4ncsc4c32)ccc1O (centres unmarked) [Compound 4t, 10-(4-hydroxy-3-methoxyphenyl)-6,7,9,10-tetrahydrofuro[3,4-b][1,3]thiazolo[5,4-f]quinolin-9-one] | < 0.1 µM | 0.15 µM | 0.15 µM | 0.14 µM | < 0.1 µM | 2.2 µM | < 0.1 µM | 0.12 µM | 0.16 µM | 296 to 297 °C | 0.15 µM |  |
| COc1cc(C2C3=C(COC3=O)Nc3ccc4nc(C)sc4c32)ccc1O (centres unmarked) [Compound 4v, 10-(4-hydroxy-3-methoxyphenyl)-2-methyl-6,7,9,10-tetrahydrofuro[3,4-b][1,3]thiazolo[5,4-f]quinolin-9-one] | 0.17 µM | 0.16 µM | 2 µM | 0.18 µM | < 0.1 µM |  | < 0.1 µM | 0.17 µM | 0.16 µM | 293 to 295 °C | 0.12 µM | 0.18 µM |
